# Source: PubChem BioAssay AID504889 (The Scripps Research Institute Molecular Screening Center, 2011)
# Calls of active or inactive are those of the source. The rule behind the calls is not given here.
# Biological target: MCHR1
# Test: antagonism of melanin-concentrating hormone receptor MCHR1 – cell-based, fluorescence, dose response, set 2, selectivity assay for GPR7 antagonist project, late-stage follow-up (AID 504889)
# Conditions: MCHR1-expressing cells, antagonist mode
SMILES,IC50 (run 1),IC50 (run 2),IC50 (run 3)
COc1ccc(Oc2c(C)cnn(-c3ccc(C(C)C)cc3)c2=O)cc1,9.81 µM,8.05 µM,–
Cc1ccc(-n2ncc(Cl)c(Oc3ccc(CO)cc3)c2=O)cc1,> 20 µM (inactive),> 20 µM (inactive),–
COc1ccc(Oc2c(Cl)cnn(-c3ccc(C)cc3)c2=O)cc1,inactive,inactive,–
CCOc1ccc(Oc2c(Cl)cnn(-c3ccc(C)cc3)c2=O)cc1,inactive,8.62 µM,–
COc1ccc(Oc2c(-c3cccs3)cnn(-c3ccc(C)cc3)c2=O)cc1,> 20 µM (inactive),> 20 µM (inactive),–
COc1ccc(Oc2c(Cl)cnn(-c3cccc4ccccc34)c2=O)cc1,8.39 µM,4.46 µM,–
COc1ccc(Oc2c(C#N)cnn(-c3ccc(C(C)C)cc3)c2=O)cc1,7.47 µM,7.6 µM,–
COc1ccc(Oc2c(-c3ccco3)cnn(-c3ccc(C)cc3)c2=O)cc1,inactive,> 20 µM (inactive),–
COC(=O)c1cnn(-c2ccc(C(C)C)cc2)c(=O)c1Oc1ccc(OC)cc1,6.89 µM,4.95 µM,–
COc1ccc(Oc2c(-c3ccccc3)cnn(-c3ccc(C)cc3)c2=O)cc1,inactive,> 20 µM (inactive),–
COc1ccc(Oc2c(Br)cnn(-c3ccc(C)cc3)c2=O)cc1,inactive,inactive,–

# Continued by falling IC50 (run 1), values first:
IC50 (run 1),IC50 (run 2),IC50 (run 3),SMILES
5.51 µM,8.4 µM,–,Cc1ccc(-n2ncc(Cl)c(Oc3ccc(C(F)(F)F)cc3)c2=O)cc1
5.41 µM,inactive,–,COc1ccc(Oc2c(C3CC3)cnn(-c3ccc(C)cc3)c2=O)cc1
5.39 µM,6.79 µM,–,COc1ccc(Oc2c(Cl)cnn(-c3cccc(C)c3)c2=O)cc1
5.02 µM,3.09 µM,–,CCc1ccc(Oc2c(Cl)cnn(-c3ccc(C)cc3)c2=O)cc1
4.78 µM,5.15 µM,–,COc1ccc(Oc2c(C=O)cnn(-c3ccc(C(C)C)cc3)c2=O)cc1
3.94 µM,5.04 µM,2.68 µM,COc1ccc(Oc2c(Cl)cnn(-c3cc(C)cc(C)c3)c2=O)cc1
3.92 µM,inactive,–,CCc1ccc(-n2ncc(Cl)c(Oc3ccc(OC)cc3)c2=O)cc1
3.1 µM,4.3 µM,–,COc1ccc(Oc2c(Cl)cnn(-c3ccc(C(C)C)cc3)c2=O)cc1
2.9 µM,4.98 µM,–,Cc1ccc(-n2ncc(Cl)c(Oc3ccc(OC(F)(F)F)cc3)c2=O)cc1
2.7 µM,8.99 µM,–,COc1ccc(Oc2c(Cl)cnn(-c3ccc(C(C)(C)C)cc3)c2=O)cc1
2.17 µM,4.71 µM,–,CCC(C)c1ccc(-n2ncc(Cl)c(Oc3ccc(OC)cc3)c2=O)cc1 (centres undefined)
1.96 µM,1.71 µM,–,COc1ccc(Oc2c(Cl)cnn(-c3ccc(C(C)C)c(C)c3)c2=O)cc1
1.72 µM,2.37 µM,–,COc1ccc(Oc2c(Cl)cnn(-c3cccc(C(C)C)c3)c2=O)cc1
